What was measured:
[1] = target: T1, ALKBH5 (Homo sapiens, UniProt Q6P6C2); assay: Fluorescence enzymatic inhibition assay (m6A7-Broccoli / DFHBI-1T), ALKBH5; format: biochemical; conditions: for IC50: Permeability Data and IC50 tables the 33rd table/the 34th table, unit inferred; for inhibition of ALKBH5 at the highest concentration measured: highest concentration 40 μM
T1 construct: SUMO (N); His10 (N); made in house; host or cells: E. coli BL21
Description: (§1) E. coli BL21 competent cells (New England Biolabs) were transformed with pET28-SUMO-His10-FTO plasmid (a generous gift from the Jaffrey lab) by heat shock and spread on a LB Kanamycin agar plate, then incubated overnight at 37° C. 2-3 colonies were picked and transferred to 5 mL of LB media treated with kanamycin (0.5 mg mL^−1 final concentration), then grown overnight shaking at 37° C. The overnight culture was then transferred to 2 L of LB kanamycin media and incubated at 37° C. until OD 0.8. The culture was cooled at 4° C. for 20 mins and induced with 0.5 mM isopropyl β-D-1-thiogalactopyranoside (IPTG), then grown shaken at 16° C. Cell pellets were collected by centrifugation (5,000 g for 10 min at 4° C.) and the supernatant was discarded. The pellets were resuspended in B-PER Bacterial Protein Extraction Reagent (6 mL per gram) with DNase 1 (5 U per mL, RNase-free) and incubated at 4° C. for 1 hour. The suspension was centrifuged at 10,000 g for 20 min and the supernatant was transferred to a Talon Metal Affinity Resin column that had been pre-equilibrized with binding buffer (50 mM NaH2PO4 pH 7.2, 300 mM NaCl, 20 mM imidazole, 1 mM β-mercaptoethanol in RNase-free water). […] The eluant was combined and transferred to a Slyde-A-Lyzer Dialysis Cassette (20,000 MWCO, Thermo Scientific) and dialyzed overnight at 4° C. against dialysis buffer (50 mM Tris-HCl pH 7.4, 100 mM NaCl, 5 mM B-mercaptoethanol, 5% (v/v) glycerol in RNase-free water). […] ALKBH5 was expressed and purified from pET28-SUMO-His10-ALKBH5 plasmid by the same procedure described above.
(§2) Inhibitors were added in concentrations ranging from 0.008-40 μM; all inhibitors were dissolved in DMSO and added to a final concentration of 0.2% DMSO. […] After incubation at room temperature for 2 hours, the plates were left at 4° C. overnight (16 hours) to allow DFHBI-1T to bind to A7-Broccoli RNA. […] Sigmoidal dose-response curves were fitted in GraphPad Prism 6. All assays were performed in triplicate, with additional repetitions added as necessary.

[2] = QikProp calculation of clogP and membrane permeability (Caco-2, MDCK models); conditions: predicted permeability models; fold
Description: In order to identify chemically distinct inhibitors of FTO, we used a combination of structure-based drug design and molecular docking with the Schrödinger software suite to target the MA binding site of FTO. […] Interactions with these four residues were considered highly favorable. […] Docking poses for FTO-1-20 are in the supporting information (FIGS. 32-51). Hits showing promising docking scores (absolute value ≥7) were also analyzed by QikProp to assess their physicochemical properties. As existing FTO inhibitors fail to progress to clinical applications due to poor pharmacokinetic profiles, it was important to filter our screen for compounds with more favorable physicochemical properties. […] These criteria were selected due to multiple studies indicating compounds with low molecular weight and moderate lipophilicity are more likely to show favorable adsorption and clearance rates, and less toxicity due to target promiscuity. As such, controlling the physicochemical properties of inhibitors during the initial screening stages should select for better leads for future optimization and development. Based on these criteria, the top 20 inhibitors were selected for synthesis (Table S1). These parameters were also calculated for MA, FB23-2 and its precursor FB23 (Table S2). […]

[3] = target: T2, FTO (Homo sapiens, UniProt Q9C0B1); conditions: reported (ref. 36); stated as selectivity against ALKBH5; cited from earlier work
T2 construct: SUMO (N); His10 (N); made in house; host or cells: E. coli BL21
T2 sequence (Q9C0B1 whole entry): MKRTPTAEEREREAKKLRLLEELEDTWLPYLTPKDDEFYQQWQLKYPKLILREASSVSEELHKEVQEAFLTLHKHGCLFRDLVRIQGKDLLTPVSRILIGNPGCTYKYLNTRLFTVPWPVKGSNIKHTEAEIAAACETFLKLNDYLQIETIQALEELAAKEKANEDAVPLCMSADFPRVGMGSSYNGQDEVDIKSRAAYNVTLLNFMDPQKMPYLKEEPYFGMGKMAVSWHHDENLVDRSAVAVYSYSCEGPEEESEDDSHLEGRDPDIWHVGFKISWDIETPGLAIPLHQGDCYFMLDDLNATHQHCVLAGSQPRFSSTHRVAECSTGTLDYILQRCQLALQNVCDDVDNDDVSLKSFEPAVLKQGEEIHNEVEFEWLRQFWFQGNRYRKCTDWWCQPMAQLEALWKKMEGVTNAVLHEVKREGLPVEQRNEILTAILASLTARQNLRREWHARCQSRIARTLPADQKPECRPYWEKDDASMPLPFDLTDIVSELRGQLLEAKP

[4] = system: MONOMAC6 and NB4 cells; conditions: fold, Huang et. al; cited from earlier work
[5] = target: T2, FTO; assay: Fluorescence enzymatic inhibition assay (m6A7-Broccoli / DFHBI-1T), FTO; format: biochemical; conditions: for precipitation in assay buffer: dose response could not be determined
Description: In order to determine their efficacy as FTO inhibitors, the compounds were screened by a fluorescence enzymatic inhibition assay developed previously by the Jaffrey lab.^44 Briefly, a nonfluorescent methylated RNA substrate termed “m6A7-Broccoli” is incubated with FTO in the presence of 2-oxoglutarate (300 μM), (NH4)2Fe(SO4)2·6H2O (300 μM), and L-ascorbate (2 mM) for 2 hours at room temperature in reaction buffer (50 mM NaHEPES, pH 6).
as §1, §2

[6] = system: TS576 glioblastoma stem cells; assay: Tumorosphere (neurosphere) formation assay, TS576; format: cell-based, human; conditions: TS576, 30 μM, 2 days, vs vehicle control
Description: To understand the effects of our FTO inhibitors on the self-renewal properties of GSCs, tumorospheres cultured from the patient-derived GSC line TS576 were treated with 30 μM of FTO-04, FTO-10, FTO-11, or FTO-12 (FIG. 29A-29B; cell line gifted from the Furnari lab).^45, 46 The GSCs were cultured in sphere-forming assays for 24 hours, then treated with either inhibitors or DMSO control for 2 days. The size of the tumorospheres was calculated using ImageJ.
Early passaged GSCs were used to understand the efficacy of ALK-04 on the self-renewal capacity of GSCs by tumorsphere-formation assay as described earlier^10, 11. In brief, GSCs were seeded at 4×10^4 cells in 24 well plate and cultured for 3 days followed by treatment with ALK-04 inhibitors at 20 μM daily for 3 days. After 3 days of treatment the images of the tumorospheres were imaged with phase contrast microscope and size was measured with Image J, to understand the effects of drugs on the self-renewal of GSCs on sphere formation. This process was also repeated for healthy neural stem cells (hNSCs) treated daily with 20 μM ALK-04 for three days to assess the therapeutic ratio.

[7] = system: MOLT-4; assay: High Throughput Screen for growth inhibition, MOLT-4; format: cell-based; conditions: MOLT-4, Leukemia; 3 days; unit not given
Description: (§3) The High Throughput Screen method is described below. The endpoint readout of this assay is based upon quantitation of ATP as an indicator of viable cells.
(§4) Cell lines that have been preserved in liquid nitrogen are thawed and expanded in growth media (see Table 1-3). Once cells have reached expected doubling times, screening begins. Cells are seeded in growth media in black 384-well tissue culture treated plates at 500-1500 cells per well (as noted in Analyzer). Cells are equilibrated in assay plates via centrifugation and placed at 37° C. 5% CO2 for twenty-four hours before treatment. […] Assay plates are incubated with compound for 3 days and are then analysed using CellTiter-Glo 2.0. All data points are collected via automated processes and are subject to quality control and analysed using Horizon's software.
(§5) Growth Inhibition (GI) is utilized as a measure of cell growth. The GI percentages are calculated by applying the following test and equation: If T<V_0: 100*(1−(T−V_0)/V_0) If T≥V_0: 100*(1−(T−V_0)/(V−V_0)) where T is the signal measure for a test article, V is the untreated/vehicle-treated control measure, and Vo is the untreated/vehicle control measure at time zero (also colloquially referred as T0 plates). This formula is derived from the Growth Inhibition calculation used in the National Cancer Institute's NCI-60 high throughput screen. For the purposes of this report, all data analysis was performed in Growth Inhibition (except where noted).
(§6) A GI of 100% represents complete growth inhibition (cytostasis) and in this case cells treated with compound for 3 days would have the same endpoint reading as TO control cells. A GI of 200% represents complete death (cytotoxicity) of all cells in the culture well and in this case the T reading at 3 days will be lower than the TO control (values near or at zero).
(§7) Horizon also provides Inhibition as a measure of cell viability. Inhibition levels of 0% represent no inhibition of cell growth by treatment. Inhibition of 100% represents no doubling of cell numbers during the treatment window. Both cytostatic and cytotoxic treatments can yield an Inhibition percentage of 100%. Inhibition percentage is calculated as the following: I=1−T/U where T is the treated and U is the untreated/vehicle control.

[8] = system: LUDLU-1; assay: High Throughput Screen for growth inhibition, LUDLU-1; format: cell-based; conditions: LUDLU-1, LUSC; 3 days; unit not given
Description: as §3, §4, §5, §6
(§8) Horizon also provides Inhibition as a measure of cell viability. Inhibition levels of 0% represent no inhibition of cell growth by treatment. […] Inhibition percentage is calculated as the following: I=1−T/U where T is the treated and U is the untreated/vehicle control.

[9] = system: AGS; assay: High Throughput Screen for growth inhibition, AGS; format: cell-based; conditions: Gastric, 3 days, unit not given
Description: as §3, §4, §5, §6, §7

[10] = system: HEC-50B; assay: High Throughput Screen for growth inhibition, HEC-50B; format: cell-based; conditions: Endometrial (uterine), 3 days, unit not given
Description: as §3, §4
as §5, with “For the purposes of this report, all data analysis was performed in Growth Inhibition (except where noted).” left out

[11] = system: BICR16; assay: High Throughput Screen for growth inhibition, BICR16; format: cell-based; conditions: BICR16, Head and Neck; 3 days; unit not given
Description: as §3, §4, §5, §6, §8

[12] = system: Kasumi-1; assay: High Throughput Screen for growth inhibition, Kasumi-1; format: cell-based; conditions: Kasumi-1, Leukemia; 3 days; unit not given
Description: as §3, §4
as §5, with “For the purposes of this report, all data analysis was performed in Growth Inhibition (except where noted).” left out

[13] = system: HCT-116; assay: High Throughput Screen for growth inhibition, HCT-116; format: cell-based; conditions: HCT-116, Colon; 3 days; unit not given
Description: as §3, §4
as §5, with “For the purposes of this report, all data analysis was performed in Growth Inhibition (except where noted).” left out

[14] = system: SW480; assay: High Throughput Screen for growth inhibition, SW480; format: cell-based; conditions: SW480, Colon; 3 days; unit not given
Description: as §3, §4
as §5, with “For the purposes of this report, all data analysis was performed in Growth Inhibition (except where noted).” left out

[15] = system: SUM159PT; assay: High Throughput Screen for growth inhibition, SUM159PT; format: cell-based; conditions: Breast, 3 days, unit not given
Description: as §3, §4
as §5, with “For the purposes of this report, all data analysis was performed in Growth Inhibition (except where noted).” left out

T1 sequence (Q6P6C2 whole entry): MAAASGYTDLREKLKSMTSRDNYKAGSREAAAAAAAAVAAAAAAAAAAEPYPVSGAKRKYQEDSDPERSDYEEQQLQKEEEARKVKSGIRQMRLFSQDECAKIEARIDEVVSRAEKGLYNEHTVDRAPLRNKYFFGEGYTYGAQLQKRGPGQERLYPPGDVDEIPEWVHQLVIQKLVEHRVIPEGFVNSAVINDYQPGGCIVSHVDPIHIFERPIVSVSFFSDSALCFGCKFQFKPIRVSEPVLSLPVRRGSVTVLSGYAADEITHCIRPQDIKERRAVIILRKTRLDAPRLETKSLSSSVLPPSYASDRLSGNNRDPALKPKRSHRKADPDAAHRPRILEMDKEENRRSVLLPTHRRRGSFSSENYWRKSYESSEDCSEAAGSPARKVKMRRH

Structure (SMILES): COC(=O)C1COC(c2ccc(OC)cc2)N1 (centres unmarked) [ALK-12]
- IC50 [1]: 16.7 ± 2.6 µM

Structure (SMILES): COC(=O)C1COC(c2ccccc2F)N1 (centres unmarked) [ALK-14]
- IC50 [1]: 29.8 ± 2.9 µM

Structure (SMILES): COC(=O)C1COC(c2ccccc2OC)N1 (centres unmarked) [ALK-15]
- IC50 [1]: 18.2 ± 2.3 µM

Structure (SMILES): Cc1noc(C)c1-c1cc(Cl)c(Nc2ccccc2C(=O)NO)c(Cl)c1 [FB23-2]
- estimated rate of passive diffusion relative to FB23 [2]: ~2.5
- inhibition of FTO at 50 μM [3]: little to no inhibition
- cellular concentration relative to FB23 [4]: 3-10

Structure (SMILES): Oc1ccc2cc(-c3cncnc3)ccc2c1 [FTO-1, 6-(pyrimidin-5-yl)naphthalen-2-ol]
- inhibition of ALKBH5 at the highest concentration measured [1]: no measurable inhibition

Structure (SMILES): COc1ncc(-c2cccc(OCc3ccccc3)c2)cn1 [FTO-3, 5-(3-(benzyloxy)phenyl)-2-methoxypyrimidine]
- precipitation in assay buffer [5]: significant precipitation in assay buffer

Structure (SMILES): COc1ccc2cc(-c3cncnc3)ccc2c1 [FTO-5, 5-(6-methoxynaphthalen-2-yl)pyrimidine]
- inhibition of ALKBH5 at the highest concentration measured [1]: no measurable inhibition

Structure (SMILES): Cc1ccc2cc(-c3cncnc3)ccc2n1 [FTO-7, 2-methyl-6-(pyrimidin-5-yl)quinoline]
- inhibition of ALKBH5 at the highest concentration measured [1]: no measurable inhibition

Structure (SMILES): Nc1ncc(-c2cccc(Nc3ccccc3)c2)cn1 [FTO-9, 5-(3-(phenylamino)phenyl)pyrimidin-2-amine]
- preference (selectivity) between FTO and ALKBH5 ([5]; ratio of potency towards FTO and ALKBH5): almost ten times more potent towards ALKBH5

Structure (SMILES): Nc1ncc(-c2ccc3cc(O)ccc3c2)cn1 [FTO-10, 6-(2-aminopyrimidin-5-yl)naphthalen-2-ol]
- size of tumorospheres [6]: significant reduction in size of the tumorospheres

Structure (SMILES): COc1ncc(-c2ccc3nc(C)ccc3c2)cn1 [FTO-11, 6-(2-methoxypyrimidin-5-yl)-2-methylquinoline]
- size of tumorospheres [6]: significant reduction in size of the tumorospheres

Structure (SMILES): COc1ccc2cc(-c3cnc(N)nc3)ccc2c1 [FTO-12, 5-(6-methoxynaphthalen-2-yl)pyrimidin-2-amine]
- inhibition of ALKBH5 at the highest concentration measured [1]: no measurable inhibition
- size of tumorospheres [6]: significant reduction in size of the tumorospheres

Structure (SMILES): COCCNc1ncc(-c2ccc3cc(OC)ccc3c2)cn1 [FTO-15, N-(2-methoxyethyl)-5-(6-methoxynaphthalen-2-yl)pyrimidin-2-amine]
- precipitation in assay buffer [5]: significant precipitation in assay buffer

Structure (SMILES): COCCNc1ncc(-c2ccc(OCc3ccccc3)cc2)cn1 [FTO-18, 5-(4-(benzyloxy)phenyl)-N-(2-methoxyethyl)pyrimidin-2-amine]
- inhibition of ALKBH5 at the highest concentration measured [1]: no measurable inhibition

Structure (SMILES): c1ccc(-c2ccc(CNCC3(N4CCCC4)COC3)s2)cc1 [TR-FTO-38]
- Growth Inhibition (GI) Values [7]: 24.366
- Growth Inhibition (GI) Values [8]: 31.952
- Growth Inhibition (GI) Values [9]: 23.3
- Growth Inhibition (GI) Values [10]: 14.018
- Growth Inhibition (GI) Values [11]: 29.832

Structure (SMILES): Clc1ccccc1-c1ccc(CNCC2(N3CCCC3)COC2)o1 [TR-FTO-43 N]
- Growth Inhibition (GI) Values [12]: 18.136
- Growth Inhibition (GI) Values [7]: 24.595
- Growth Inhibition (GI) Values [8]: 28.561
- Growth Inhibition (GI) Values [9]: 21.005
- Growth Inhibition (GI) Values [13]: 31.451
- Growth Inhibition (GI) Values [14]: 28.499
- Growth Inhibition (GI) Values [11]: 25.212

Structure (SMILES): FC1CCN(C2(CNCc3ccc(-c4ccccc4Cl)o3)COC2)C1 (centres unmarked) [TR-FTO-49 N]
- Growth Inhibition (GI) Values [7]: 27.521

Structure (SMILES): c1cncc(CNc2ccc(CNC3CC3)cn2)c1 [TR-YTH-05]
- Growth Inhibition (GI) Values [9]: 6.35
- Growth Inhibition (GI) Values [15]: 8.629

Reference: patent US12630527B2, “Broad spectrum anti-cancer compounds” (The Regents of the University of California, priority 2019, dated 2026)
